Assay results taken from US8247211B2, “Glycopeptide antibiotics” (American Cyanamid Company, priority 2001, dated 2012).
Values after ≈ are worked out from the molar mass of the structure shown.

What was measured:
Assay in all cases: In vitro antibacterial evaluation: minimum inhibitory concentration (MIC), broth dilution method
Assay type in all cases: cell-based
[1] = tested on: Escherichia coli
[2] = tested on: Enterococcus sp.
Summary of the method: (§1)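 First, organisms are seeded at 5×10^5 CFU/mL into Muller-Hinton II […]. Next, antibiotic is applied across 64-0.06 μg/mL by broth dilution (NCCLS M7-A2). Finally, the lowest inhibitory concentration is recorded as MIC.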

[3] = tested on: Escherichia coli; remark: listed apart in the source
Summary of the method: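 Using Muller-Hinton II […] and an inoculum of 5×10^5 CFU/mL, antibiotic dilutions from 64 down to 0.06 μg/mL were tested following NCCLS M7-A2. The MIC is the lowest concentration inhibiting growth, including in methicillin-, penicillin- or vancomycin-resistant clinical isolates.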

[4] = tested on: Staphylococcus sp.; settings: 18 hours at 35° C.
Summary of the method: as §1

Row | MIC Escherichia coli (ATCC 25922) [1] [µg/mL] | MIC Enterococcus avium (GC 4558) [2] [µg/mL] | MIC Enterococcus faecalis (ATCC 29212) [2] [µg/mL] | MIC Enterococcus faecalis (GC 4553) [2] [µg/mL] | MIC Enterococcus faecalis (GC 4554) [2] [µg/mL] | MIC Enterococcus faecium (GC 2243) [2] [µg/mL] | MIC Enterococcus faecium (GC 4556) [2] [µg/mL] | MIC Enterococcus faecium (GC 4557) [2] [µg/mL] | MIC Escherichia coli (GC 4559) [3] [µg/mL] | MIC Escherichia coli (GC 4560) [3] [µg/mL] | MIC Coagulase Negative Staphylococcus (GC 4547) [4] [µg/mL] | MIC Coagulase Negative Staphylococcus (GC 4547) ([4]; broth dilution) [µg/mL] | MIC Coagulase Negative Staphylococcus (GC 4548) [4] [µg/mL] | MIC Coagulase Negative Staphylococcus (GC 4548) ([4]; broth dilution) [µg/mL] | MIC Coagulase Negative Staphylococcus (GC 4549) [4] [µg/mL] | MIC Coagulase Negative Staphylococcus (GC 4549) ([4]; broth dilution) [µg/mL] | MIC Coagulase Negative Staphylococcus (GC 4551) [4] [µg/mL] | MIC Coagulase Negative Staphylococcus (GC 4551) ([4]; broth dilution) [µg/mL] | MIC Staphylococcus aureus (ATCC 29213) [4] [µg/mL] | MIC Staphylococcus aureus (ATCC 29213) ([4]; broth dilution) [µg/mL] | Compound | also measured
1 | >64 | 64 (≈ 46.2 µM) | 64 (≈ 46.2 µM) | 64 (≈ 46.2 µM) | >64 | 64 (≈ 46.2 µM) | 64 (≈ 46.2 µM) | 8 (≈ 5.77 µM) | 64 (≈ 46.2 µM) | 4 (≈ 2.89 µM) | 8 (≈ 5.77 µM) | 8 (≈ 5.77 µM) | 4 (≈ 2.89 µM) | 4 (≈ 2.89 µM) | 4 (≈ 2.89 µM) | 4 (≈ 2.89 µM) | 8 (≈ 5.77 µM) | 8 (≈ 5.77 µM) | 16 (≈ 11.5 µM) | 16 (≈ 11.5 µM) | CC(C)CC(=O)OC1C(O)C(CO)OC(OC2C(CO)OC(Oc3ccc(CC4NC(=O)C(C(C)c5cccs5)NC(=O)CNC(=O)C(CO)NC(=O)C(C(O)C5CNC(=N)N5C5OC(CO)C(O)C(O)C5O)NC(=O)C(C(O)C5CNC(=N)N5)NC4=O)cc3)C(O)C2O)C1O (centres unmarked) [Example 265b] | MIC Enterococcus faecalis (GC 2242) ([2]; broth dilution, 18 hours at 35° C., strain GC 2242): 4 µg/mL (≈ 2.89 µM); MIC Enterococcus faecalis (GC 2691) ([2]; broth dilution, 18 hours at 35° C., strain GC 2691): 64 µg/mL (≈ 46.2 µM); MIC Staphylococcus aureus (GC 1131) [4]: 32 µg/mL (≈ 23.1 µM); MIC Staphylococcus aureus (GC 1131) ([4]; broth dilution): 32 µg/mL (≈ 23.1 µM); MIC Staphylococcus aureus (GC 4541) [4]: 8 µg/mL (≈ 5.77 µM); MIC Staphylococcus aureus (GC 4541) ([4]; broth dilution): 8 µg/mL (≈ 5.77 µM); MIC Staphylococcus aureus (GC 4542) [4]: 8 µg/mL (≈ 5.77 µM); MIC Staphylococcus aureus (GC 4542) ([4]; broth dilution): 8 µg/mL (≈ 5.77 µM); MIC Staphylococcus aureus (GC 4544) [4]: 8 µg/mL (≈ 5.77 µM); MIC Staphylococcus aureus (GC 4544) ([4]; broth dilution): 8 µg/mL (≈ 5.77 µM); MIC Staphylococcus aureus (GC 4545) [4]: 8 µg/mL (≈ 5.77 µM); MIC Staphylococcus aureus (GC 4545) ([4]; broth dilution): 8 µg/mL (≈ 5.77 µM); MIC Staphylococcus aureus-SMITH (GC 4543) [4]: 8 µg/mL (≈ 5.77 µM); MIC Staphylococcus aureus-SMITH (GC 4543) ([4]; broth dilution): 8 µg/mL (≈ 5.77 µM); MIC Staphylococcus haemolyticus (GC 4546) [4]: 8 µg/mL (≈ 5.77 µM); MIC Staphylococcus haemolyticus (GC 4546) ([4]; broth dilution): 8 µg/mL (≈ 5.77 µM)
2 | >64 | 16 (≈ 11.5 µM) | 16 (≈ 11.5 µM) | 16 (≈ 11.5 µM) | 32 (≈ 23 µM) | 16 (≈ 11.5 µM) | 16 (≈ 11.5 µM) | 4 (≈ 2.87 µM) | >64 | 2 (≈ 1.44 µM) | 2 (≈ 1.44 µM) | 2 (≈ 1.44 µM) | 2 (≈ 1.44 µM) | 2 (≈ 1.44 µM) | 2 (≈ 1.44 µM) | 2 (≈ 1.44 µM) | 4 (≈ 2.87 µM) | 4 (≈ 2.87 µM) | 4 (≈ 2.87 µM) | 4 (≈ 2.87 µM) | CC(C)CCC(=O)OC1C(OC2C(CO)OC(Oc3ccc(CC4NC(=O)C(C(C)c5ccccc5)NC(=O)CNC(=O)C(CO)NC(=O)C(C(O)C5CNC(=N)N5C5OC(CO)C(O)C(O)C5O)NC(=O)C(C(O)C5CNC(=N)N5)NC4=O)cc3)C(O)C2O)OC(CO)C(O)C1O (stereo not drawn) [Example 270a, Cyclo[glycyl-β-methylphenylalanyl-O-[4-O-[2-O-(4-methylpentanoyl)hexopyranosyl]-hexopyranosyl]tyrosyl-3-(2-iminoimidazolidin-4-yl)seryl-3-(3-hexopyranosyl-2-iminoimidazolidin-4-yl)serylseryl]] | MIC Staphylococcus aureus (GC 1131) [4]: 4 µg/mL (≈ 2.87 µM); MIC Staphylococcus aureus (GC 1131) ([4]; broth dilution): 4 µg/mL (≈ 2.87 µM); MIC Staphylococcus aureus (GC 4541) [4]: 4 µg/mL (≈ 2.87 µM); MIC Staphylococcus aureus (GC 4541) ([4]; broth dilution): 4 µg/mL (≈ 2.87 µM); MIC Staphylococcus aureus (GC 4542) [4]: 4 µg/mL (≈ 2.87 µM); MIC Staphylococcus aureus (GC 4542) ([4]; broth dilution): 4 µg/mL (≈ 2.87 µM); MIC Staphylococcus aureus (GC 4544) [4]: 4 µg/mL (≈ 2.87 µM); MIC Staphylococcus aureus (GC 4544) ([4]; broth dilution): 4 µg/mL (≈ 2.87 µM); MIC Staphylococcus aureus (GC 4545) [4]: 4 µg/mL (≈ 2.87 µM); MIC Staphylococcus aureus (GC 4545) ([4]; broth dilution): 4 µg/mL (≈ 2.87 µM); MIC Staphylococcus aureus-SMITH (GC 4543) [4]: 4 µg/mL (≈ 2.87 µM); MIC Staphylococcus aureus-SMITH (GC 4543) ([4]; broth dilution): 4 µg/mL (≈ 2.87 µM); MIC Staphylococcus haemolyticus (GC 4546) [4]: 2 µg/mL (≈ 1.44 µM); MIC Staphylococcus haemolyticus (GC 4546) ([4]; broth dilution): 2 µg/mL (≈ 1.44 µM)
3 | >64 | 32 (≈ 22.3 µM) | 32 (≈ 22.3 µM) | 32 (≈ 22.3 µM) | 32 (≈ 22.3 µM) | 32 (≈ 22.3 µM) | 32 (≈ 22.3 µM) | 8 (≈ 5.57 µM) | >64 | 4 (≈ 2.79 µM) | 4 (≈ 2.79 µM) | 4 (≈ 2.79 µM) | 4 (≈ 2.79 µM) | 4 (≈ 2.79 µM) | 4 (≈ 2.79 µM) | 4 (≈ 2.79 µM) | 4 (≈ 2.79 µM) | 4 (≈ 2.79 µM) | 8 (≈ 5.57 µM) | 8 (≈ 5.57 µM) | CC(=O)OCC1OC(OC2C(CO)OC(Oc3ccc(CC4NC(=O)C(C(C)c5ccccc5)NC(=O)CNC(=O)C(CO)NC(=O)C(C(O)C5CNC(=N)N5C5OC(CO)C(O)C(O)C5O)NC(=O)C(C(O)C5CNC(=N)N5)NC4=O)cc3)C(O)C2O)C(O)C(OC(=O)CCC(C)C)C1O (stereo not drawn) [Example 270b, Cyclo[glycyl-β-methylphenylalanyl-O-[4-O-[6-O-acetyl-3-O-(4-methylpentanoyl)hexopyranosyl]hexopyranosyl]tyrosyl-3-(2-iminoimidazolidin-4-yl)seryl-3-(3-hexopyranosyl-2-iminoimidazolidin-4-yl)serylseryl]] | MIC Staphylococcus aureus (GC 1131) [4]: 8 µg/mL (≈ 5.57 µM); MIC Staphylococcus aureus (GC 1131) ([4]; broth dilution): 8 µg/mL (≈ 5.57 µM); MIC Staphylococcus aureus (GC 4541) [4]: 8 µg/mL (≈ 5.57 µM); MIC Staphylococcus aureus (GC 4541) ([4]; broth dilution): 8 µg/mL (≈ 5.57 µM); MIC Staphylococcus aureus (GC 4542) [4]: 8 µg/mL (≈ 5.57 µM); MIC Staphylococcus aureus (GC 4542) ([4]; broth dilution): 8 µg/mL (≈ 5.57 µM); MIC Staphylococcus aureus (GC 4544) [4]: 8 µg/mL (≈ 5.57 µM); MIC Staphylococcus aureus (GC 4544) ([4]; broth dilution): 8 µg/mL (≈ 5.57 µM); MIC Staphylococcus aureus (GC 4545) [4]: 4 µg/mL (≈ 2.79 µM); MIC Staphylococcus aureus (GC 4545) ([4]; broth dilution): 4 µg/mL (≈ 2.79 µM); MIC Staphylococcus aureus-SMITH (GC 4543) [4]: 4 µg/mL (≈ 2.79 µM); MIC Staphylococcus aureus-SMITH (GC 4543) ([4]; broth dilution): 4 µg/mL (≈ 2.79 µM); MIC Staphylococcus haemolyticus (GC 4546) [4]: 4 µg/mL (≈ 2.79 µM); MIC Staphylococcus haemolyticus (GC 4546) ([4]; broth dilution): 4 µg/mL (≈ 2.79 µM)
